# Assay results from PubChem BioAssay (NCI).
#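 Cells were grown in 96-well plates and exposed to each compound for 48 hours at five concentrations; endpoints were interpolated linearly between bracketing concentrations, or set to the highest concentration if not reached. The concentration for 50% growth inhibition is given as GI50. Definition used: TGI = concentration required for complete inhibition of growth.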
# What was measured:
# Experiment in all cases: inhibition of tumour cell growth, NCI panel, 48 h
# IGROV1 ovarian = test system: IGROV1 ovarian
# CAKI-1 renal = test system: CAKI-1 renal
# SK-OV-3 ovarian = test system: SK-OV-3 ovarian
# SNB-19 CNS = test system: SNB-19 CNS
# SW-620 colon = test system: SW-620 colon
# U251 CNS = test system: U251 CNS
# SF-295 CNS = test system: SF-295 CNS
# SF-268 CNS = test system: SF-268 CNS
# MDA-MB-435 = test system: MDA-MB-435
# DU-145 prostate = test system: DU-145 prostate
SMILES,TGI (IGROV1 ovarian),TGI (CAKI-1 renal),TGI (SK-OV-3 ovarian),TGI (SNB-19 CNS),TGI (SW-620 colon),TGI (U251 CNS),TGI (SF-295 CNS),TGI (SF-268 CNS),GI50 (CAKI-1 renal),GI50 (SK-OV-3 ovarian),GI50 (SNB-19 CNS),GI50 (MDA-MB-435),TGI (MDA-MB-435),GI50 (SW-620 colon),GI50 (U251 CNS),GI50 (DU-145 prostate),TGI (DU-145 prostate),GI50 (SF-295 CNS),GI50 (SF-268 CNS),GI50 (IGROV1 ovarian)
CC(=O)CC(=O)CCC(=O)Nc1cccc(C(F)(F)F)c1,> 100 µM,> 100 µM,> 100 µM,> 100 µM,> 100 µM,> 100 µM,> 100 µM,> 100 µM,,,,,,,,,,,,
O=[N+]([O-])/C=C/c1ccc(Cl)cc1Cl,29.4 µM,29.8 µM,,32.4 µM,37.5 µM,20.5 µM,32 µM,44.5 µM,,,,,,,,,,,,
COC(=O)c1cc([N+](=O)[O-])cc([N+](=O)[O-])c1Cl,,3.28 µM,31.3 µM,34.5 µM,3.52 µM,4.78 µM,36.9 µM,25.4 µM,1.73 µM,17.5 µM,17.4 µM,1.89 µM,3.64 µM,1.87 µM,2.14 µM,2.3 µM,6.6 µM,19.3 µM,12.7 µM,
C[C@@H](NC(=O)c1ccc(F)cc1)c1ccc2c(c1)CCN2C(=O)C1CCOCC1,> 100 µM,> 100 µM,> 100 µM,,> 100 µM,> 100 µM,> 100 µM,> 100 µM,> 100 µM,> 100 µM,,> 100 µM,> 100 µM,> 100 µM,> 100 µM,> 100 µM,> 100 µM,> 100 µM,> 100 µM,> 100 µM
CC1CCC2C(CN(CC3=C(C(F)(F)F)OC4OC5(C)CCC6C(C)CCC3C46OO5)CC3=C(C(F)(F)F)OC4OC5(C)CCC6C(C)CCC3C46OO5)=C(C(F)(F)F)OC3OC4(C)CCC1C32OO4 (configuration not stated),,18.4 µM,> 100 µM,> 100 µM,,19.2 µM,,48.4 µM,5.87 µM,35.2 µM,30.8 µM,4.54 µM,17.3 µM,,5.12 µM,,,,18.7 µM,
Cc1cc2c(c(=O)o1)C1=S(SC(c3ccccc3)=C1)S2 (configuration not stated),> 100 µM,,52.6 µM,> 100 µM,> 100 µM,57.2 µM,88 µM,> 100 µM,,,,,,,,,> 100 µM,,,
CCOC(=O)C(CCCNC(=O)OC(C)(C)C)N(Cc1ccc(OC)cc1OC)C(=O)CC(=O)CP(=O)(OCC)OCC (configuration not stated),> 100 µM,> 100 µM,> 100 µM,> 100 µM,,> 100 µM,> 100 µM,> 100 µM,,,,,,,,,,,,
O=C(c1c(O)cc(O)cc1O)C1Cc2ccccc21 (configuration not stated),> 100 µM,> 100 µM,> 100 µM,> 100 µM,> 100 µM,> 100 µM,> 100 µM,> 100 µM,,,,,,,,,,,,
CC(=O)[CH-]C(C)=O.CC(=O)[CH-]C(C)=O.CC(=O)[CH-]C(C)=O.[Ga+3],> 100 µM,> 100 µM,,> 100 µM,> 100 µM,> 100 µM,> 100 µM,> 100 µM,> 100 µM,,> 100 µM,,,> 100 µM,> 100 µM,,,> 100 µM,> 100 µM,> 100 µM
O=C1C(Nc2cccc(O)c2)=C(Sc2ccccc2)C(=O)N1Cc1ccccc1,,55.2 µM,35.3 µM,27 µM,33.4 µM,35.4 µM,50.2 µM,26.8 µM,21.6 µM,16.4 µM,13 µM,11.1 µM,27.4 µM,14.2 µM,13 µM,16.2 µM,33.3 µM,13.5 µM,10.5 µM,
CC1CCC2(C)C(CC=C(C=O)C2(O)C=O)C12CO2 (configuration not stated),7.72 µM,11 µM,10.2 µM,22.5 µM,8.77 µM,9.37 µM,13.9 µM,18 µM,,,,,,,,,,,,
N#CNC1=NC(N)C(c2nc3ccccc3[nH]2)=C(CCCC(=O)Nc2cccc([N+](=O)[O-])c2)N1 (configuration not stated),> 100 µM,> 100 µM,> 100 µM,> 100 µM,> 100 µM,,> 100 µM,> 100 µM,,,,,,,,,,,,
C=CC[N+]1(CC)CCN=C1CCCCCCCCCCCCCCCCC (configuration not stated),0.475 µM,2.63 µM,2.33 µM,,1.71 µM,1.47 µM,0.936 µM,0.61 µM,1.2 µM,1.12 µM,,,,0.499 µM,0.386 µM,0.659 µM,2.02 µM,0.249 µM,0.236 µM,0.237 µM
Clc1ccc([I+]c2ccc(Cl)cc2Cl)c(Cl)c1,,3.32 µM,12 µM,15.9 µM,3.75 µM,3.38 µM,7.57 µM,4.99 µM,1.61 µM,4.17 µM,4.28 µM,1.96 µM,4.33 µM,1.25 µM,1.77 µM,1.92 µM,3.51 µM,2.58 µM,2.14 µM,
CC(C)OC(=O)C1Cc2c([nH]c3ccccc23)C(c2ccccc2)N1 (configuration not stated),> 100 µM,> 100 µM,> 100 µM,> 100 µM,> 100 µM,> 100 µM,> 100 µM,> 100 µM,,,,,,,,,,,,
Fc1ccc2nc(-c3nc(-c4ccccc4)n4ccccc34)[nH]c2c1,5.3 µM,15.1 µM,5.26 µM,6.22 µM,17.3 µM,5.42 µM,,9.96 µM,3.38 µM,2.4 µM,2.37 µM,2.59 µM,8.94 µM,3.97 µM,2.22 µM,5.56 µM,18.1 µM,,3.29 µM,1.95 µM
C[P+]1(c2ccccc2)CCCCC1,> 100 µM,> 100 µM,> 100 µM,> 100 µM,> 100 µM,> 100 µM,> 100 µM,> 100 µM,,,,,,,,,,,,
C=C1C=CC2(Br)OC3CC(C)(Cl)C(Br)CC13C2(C)C (configuration not stated),92.7 µM,> 100 µM,> 100 µM,88.3 µM,56 µM,35.3 µM,45.5 µM,> 100 µM,,,,,,,,,,,,
Cn1nc(-c2ccccc2)c(C(=O)/C=C/c2ccc(Cl)cc2)c(N2CCOCC2)c1=O,16.1 µM,19.7 µM,19.7 µM,29.3 µM,21.5 µM,12.8 µM,4.79 µM,11.8 µM,,,,,,,,,,,,
